Experimental data: patent publication US20150099709A1, “GHRELIN RECEPTOR AGONISTS FOR THE TREATMENT OF ACHLORHYDRIA” (RaQualia Pharma Inc., priority 2012, published 2015)

Tested on: intra-gastric pH
Test: Measurement of intra-gastric pH in dogs (gastric fistula, pH electrode)
Format: in vivo, dog
Conditions: for change of intra-gastric pH value after dosing / time for which the low intra-gastric pH is maintained: dogs, orally, dose not given
Procedure: Male beagle dogs are used. A metallic cannula is placed in on the left side of the abdomen at the lowest part of the distal gastric corpus region near the greater curvature by a surgical operation. Intra-gastric pH is measured continuously by a flexible pH electrode inserted via the gastric fistula. Vehicle or drugs are administered orally to the dogs.
Compound A 3 mg/kg is orally administered to dogs in a similar way described in Example 1. Intra-gastric pH value is between 2 and 7 in the vehicle-treated conscious dogs.

Structure (SMILES)	time for which the low intra-gastric pH value is maintained (male beagle dogs, 3 mg/kg orally)	intra-gastric pH value maintained after administration (male beagle dogs, 3 mg/kg orally, both dogs)	change of intra-gastric pH value after administration (male beagle dogs, 3 mg/kg orally, conscious, FIG. 2)	change of intra-gastric pH value after dosing	time for which the low intra-gastric pH is maintained
CN1N=C2CCN(C(=O)[C@@H](COCc3ccccc3)NC(=O)C(C)(C)N)C[C@@]2(Cc2ccccc2)C1=O [Compound A, 2-amino-N-[2-(3a-(R)-benzyl-2-methyl-3-oxo-2,3,3a,4,6,7-hexahydropyrazolo[4,3-c]pyridin-5-yl)-1-(R)-benzyloxymethyl-2-oxo-ethyl]isobutyramide]	more than 3 hours	below 2.5	rapidly decreases after the administration		
CC(C)(N)C(=O)N[C@H](COCc1ccc(F)cc1F)C(=O)N1CCC2=NN(CC(F)(F)F)C(=O)[C@]2(Cc2ccccn2)C1 [Compound B, 2-amino-N-[1-(R)-(2,4-difluoro-benzyloxymethyl)-2-oxo-2-(3-oxo-3a-(R)-pyridin-2-ylmethyl-2-(2,2,2-trifluoro-ethyl)-2,3,3a,4,6,7-hexahydropyrazolo[4,3-c]pyridin-5-yl)-ethyl]-2-methyl-propionamide]				decreases soon just after dosing	more than 3 hours
CN(C)N(C)C(=O)[C@@]1(Cc2ccccc2)CCCN(C(=O)[C@@H](Cc2c[nH]c3ccccc23)NC(=O)C(C)(C)N)C1 [Compound C]				decreases soon just after dosing	more than 3 hours
CN(C(=O)/C=C/CC1(N)CCC1)[C@H](Cc1ccc(-c2ccccc2)cc1)C(=O)N(C)[C@H](Cc1ccccc1)C(=O)N1CCC(O)CC1 [Compound D, (E)-N—((R)-3-([1,1′-biphenyl]-4-yl)-1-(((R)-1-(4-hydroxypiperidin-1-yl)-1-oxo-3-phenylpropan-2-yl)(methyl)amino)-1-oxopropan-2-yl)-4-(1-aminocyclobutyl)-N-methylbut-2-enamide]				decreases soon just after dosing	more than 3 hours
C[C@@H]1CN[C@@H](C2CC2)C(=O)N(C)[C@H](C)C(=O)N[C@H](Cc2ccc(F)cc2)C(=O)NCCCc2ccccc2O1 [Compound E, (2R,5S,8R,11R)-5-cyclopropyl-11-(4-fluorobenzyl)-2,7,8-trimethyl-4,5,7,8,10,11,13,14,15,16-decahydro-2H-benzo[q][1,4,7,10,13]oxatetraazacyclooctadecine-6,9,12(3H)-trione]				decreases soon just after dosing	more than 3 hours
